Broadly, the pIC50 is the IC50 on a negative log10 scale, so that one unit is a factor of ten.

pIC50: −log10 of the molar value. “And” between values parts separate entries of the source, which are not always exact repeats. Equal values may be shown once. Read-outs that look alike come from different tables or passages of the source.

Drawing on patent publication US20070043024A1, “Azacyclic compounds as inhibitors of sensory neurone specific channels” (priority 2003, published 2007), this text covers IC50 for 40 compounds.

This experiment has as its target T1, human Nav1.8 (hNav1.8) ion channel (Homo sapiens, UniProt Q9Y5Y9).
T1 construct: expressed in transfected cells
The experiment in a line: Inhibition of human Nav1.8 stably expressed in SH-SY-5Y cells (membrane potential dye fluorescence assay). It counts as cell-based.

The mark [1] stands for this setting: Table 1, SH-SY-5Y hNav1.8 cells, inhibition of membrane depolarisation, FLIPR membrane potential dye, 250 nM TTX, test concentration range 100 μM-0.05 μM, read-out: IC50.
[2] abbreviates: Table 2 (compound numbers of the list in the description), SH-SY-5Y hNav1.8 cells, inhibition of membrane depolarisation, FLIPR membrane potential dye, 250 nM TTX, test concentration range 100 μM-0.05 μM, read-out: IC50.

T1 sequence (Q9Y5Y9 whole entry): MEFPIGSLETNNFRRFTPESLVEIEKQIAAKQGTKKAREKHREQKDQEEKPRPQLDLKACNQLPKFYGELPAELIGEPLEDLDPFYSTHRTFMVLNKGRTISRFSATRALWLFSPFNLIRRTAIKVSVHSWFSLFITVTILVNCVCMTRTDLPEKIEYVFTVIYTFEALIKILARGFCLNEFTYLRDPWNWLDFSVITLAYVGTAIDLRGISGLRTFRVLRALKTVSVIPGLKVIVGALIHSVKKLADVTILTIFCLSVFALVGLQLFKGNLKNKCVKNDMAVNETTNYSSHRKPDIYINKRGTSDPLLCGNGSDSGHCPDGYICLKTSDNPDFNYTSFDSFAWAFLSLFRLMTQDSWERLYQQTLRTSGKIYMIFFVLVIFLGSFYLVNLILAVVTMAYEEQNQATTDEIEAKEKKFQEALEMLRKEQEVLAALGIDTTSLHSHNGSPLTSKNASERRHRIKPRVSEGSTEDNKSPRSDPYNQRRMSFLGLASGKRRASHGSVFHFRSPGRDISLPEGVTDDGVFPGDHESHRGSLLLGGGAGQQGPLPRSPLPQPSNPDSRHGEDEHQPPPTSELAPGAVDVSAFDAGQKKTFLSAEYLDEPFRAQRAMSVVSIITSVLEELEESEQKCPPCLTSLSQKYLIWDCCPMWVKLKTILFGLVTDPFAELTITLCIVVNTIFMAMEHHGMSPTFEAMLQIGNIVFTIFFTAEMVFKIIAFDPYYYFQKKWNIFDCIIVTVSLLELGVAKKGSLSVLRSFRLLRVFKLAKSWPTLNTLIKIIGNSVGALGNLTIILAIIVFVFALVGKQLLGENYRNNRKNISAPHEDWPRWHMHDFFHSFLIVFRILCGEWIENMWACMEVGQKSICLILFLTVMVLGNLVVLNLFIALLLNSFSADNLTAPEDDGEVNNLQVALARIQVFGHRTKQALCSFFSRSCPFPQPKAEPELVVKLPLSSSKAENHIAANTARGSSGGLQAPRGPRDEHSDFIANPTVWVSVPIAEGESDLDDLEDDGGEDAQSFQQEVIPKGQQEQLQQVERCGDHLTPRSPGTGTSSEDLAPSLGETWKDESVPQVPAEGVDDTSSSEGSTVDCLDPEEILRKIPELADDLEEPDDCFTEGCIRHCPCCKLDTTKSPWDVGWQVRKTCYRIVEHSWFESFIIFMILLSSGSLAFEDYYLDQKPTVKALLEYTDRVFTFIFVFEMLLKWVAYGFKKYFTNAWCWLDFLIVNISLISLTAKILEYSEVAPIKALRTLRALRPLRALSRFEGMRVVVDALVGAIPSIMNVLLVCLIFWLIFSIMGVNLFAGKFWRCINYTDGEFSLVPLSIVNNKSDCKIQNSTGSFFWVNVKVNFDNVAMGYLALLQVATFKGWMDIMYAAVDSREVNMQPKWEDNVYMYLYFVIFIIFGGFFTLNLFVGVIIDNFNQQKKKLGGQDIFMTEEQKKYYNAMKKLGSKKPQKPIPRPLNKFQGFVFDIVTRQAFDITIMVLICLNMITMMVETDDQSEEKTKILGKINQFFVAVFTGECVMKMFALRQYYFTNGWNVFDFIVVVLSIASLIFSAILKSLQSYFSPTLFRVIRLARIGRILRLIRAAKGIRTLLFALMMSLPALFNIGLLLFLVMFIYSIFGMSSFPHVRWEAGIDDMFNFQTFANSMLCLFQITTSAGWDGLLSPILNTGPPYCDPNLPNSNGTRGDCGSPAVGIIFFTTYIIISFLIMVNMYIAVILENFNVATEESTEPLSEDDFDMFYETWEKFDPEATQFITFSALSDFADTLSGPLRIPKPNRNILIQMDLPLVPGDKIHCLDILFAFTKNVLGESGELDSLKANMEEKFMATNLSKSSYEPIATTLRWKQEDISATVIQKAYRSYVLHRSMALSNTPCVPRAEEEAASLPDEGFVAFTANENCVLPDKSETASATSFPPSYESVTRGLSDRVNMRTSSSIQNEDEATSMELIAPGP

Consider `O=C(CN1Cc2ccccc2C1)NCCC(c1ccccc1)c1ccccc1` [Example 40, 2-(1,3-Dihydro-isoindol-2-yl)-N-(3,3-diphenyl-propyl)-acetamide], for which the pIC50 by setting is: under setting [1], 6.01; under setting [2], 6.28.

With `COc1cccc2c1CN(CC(=O)N1CCN(C(c3ccccc3)c3ccccc3)CC1)CC2` [Example 62, 1-(4-benzhydryl-piperazin-1-yl)-2-(8-methoxy-3,4-dihydro-1H-isoquinolin-2-yl)-ethanone], the pIC50 under setting [1] is 5.25.

As for `Nc1cccc2c1CN(CCCC(c1ccc(F)cc1)c1ccc(F)cc1)C2` [Compound 102, 2-[4,4-Bis-(4-fluoro-phenyl)-butyl]-2,3-dihydro-1H-isoindol-4ylamine], under setting [2], the pIC50 was 6.07.

Consider `CC(C)(C)C1COc2ccccc2N1C(=O)CN1CCc2cccc(O)c2C1` (centres unmarked) [Compound 211, 1-(3-tert-Butyl-2,3-dihydro-benzo[1,4]oxazin-4-yl)-2-(8-hydroxy-3,4-dihydro-1H-isoquinolin-2-yl)-ethanone], for which the pIC50 under setting [2] was 5.52.

On to `COc1ccc2c(c1)CN(CC(=O)NCCC(c1ccccc1)c1ccccc1)CC2` [Example 86, N-(3,3-Diphenyl-propyl)-2-(7-methoxy-3,4-dihydro-1H-isoquinolin-2-yl)-acetamide], for which, under setting [1], the pIC50 is 5.84.

Regarding `Oc1cccc2c1CN(Cc1cc(F)ccc1F)CC2` [Example 92, 2-(2,5-Difluoro-benzyl)-1,2,3,4-tetrahydro-isoquinolin-8-ol], the pIC50 under setting [1] is 5.28.

Consider `O=C(CC(c1ccc(F)cc1)c1ccc(F)cc1)N1CCc2ccccc2C1` [Example 30], for which, under setting [1], the pIC50 is 5.80.

Turning to `CS(=O)(=O)Nc1cccc2c1CN(CC(=O)N1c3ccccc3Oc3ccccc31)C2` [Compound 210, N-[2-(2-Oxo-2-phenoxazin-10-yl-ethyl)-2,3-dihydro-1H-isoindol-4-yl]-methanesulfonamide], the pIC50 under setting [2] was 5.46.

Turning to `O=C(CCN1CCc2cccc(O)c2C1)N1c2ccccc2Oc2ccccc21` [Compound 190, 3-(8-Hydroxy-3,4-dihydro-1H-isoquinolin-2-yl)-1-phenoxazin-10-yl-propan-1-one], the negative logarithm of the IC50 (pIC50) under setting [2] is 6.28.

As to `O=C(CN(CCC(c1ccccc1)c1ccccc1)CC(=O)N1CCc2ccccc2C1)N1CCc2ccccc2C1` [Example 33, 1-(3,4-Dihydro-1H-isoquinolin-2-yl)-2-[[2-(3,4-dihydro-1H-isoquinolin-2-yl)-2-oxo-ethyl]-(3,3-diphenyl-propyl)-amino]-ethanone], the pIC50 under setting [1] was 6.07.

`COc1cc2c(cc1OC)CN(CC(=O)NCCCC(c1ccccc1)c1ccccc1)CC2` [Compound 124, 2-(Dimethoxy-3,4-dihydro-1H-isoquinolin-2-yl)-N-(4,4-diphenyl-butyl)-acetamide]: under setting [2], the pIC50 was 6.23.

In the case of `Cc1cc(C(C)(CCCN2CCc3cccc(O)c3C2)c2cc(C)c(O)c(C)c2)cc(C)c1O` [Example 97, 2-[4,4-Bis-(4-hydroxy-3,5-dimethyl-phenyl)-pentyl]-1,2,3,4-tetrahydroisoquinolin-8-ol], the pIC50 under setting [1] is 5.97.

Turning to `CCC1COc2ccccc2N1C(=O)CN1CCc2cccc(OC)c2C1` (centres unmarked) [Compound 208, 1-(3-Ethyl-2,3-dihydro-benzo[1,4]oxazin-4-yl)-2-(8-methoxy-3,4-dihydro-1H-isoquinolin-2-yl)-ethanone], the pIC50 under setting [2] is 5.77.

Regarding `COc1cccc2c1CN(CC(=O)NC(c1ccccc1)c1ccccc1)CC2` [Example 19, N-Benzhydryl-2-(8-methoxy-3,4-dihydro-1H-isoquinolin-2-yl)-acetamide], the pIC50 under setting [1] is 6.14.

`COc1cccc2c1CN(CC(=O)Nc1ccccc1Oc1ccccc1)CC2` [Compound 184, 2-(8-Methoxy-3,4-dihydro-1H-isoquinolin-2-yl)-N-(2-phenoxy-phenyl)-acetamide]: the pIC50 under setting [2] is 4.96.

In the case of `O=C(CNC(c1ccccc1)c1ccccc1)N1CCc2ccccc2C1` [Example 31, 2-(Benzhydryl-amino)-1-(3,4-dihydro-1H-isoquinolin-2-yl)-ethanone], the pIC50 under setting [1] is 5.73.

`COc1ccc2c(c1)CCCN(CC(=O)NC(c1ccccc1)c1ccccc1)C2` [Compound 83, N-benzhydryl-2-(7-methoxy-1,3,4,5-tetrahydro-benzo[c]azepin-2-yl)-acetamide]: the pIC50 under setting [2] is 6.08.

`COc1ccc2c(c1)CCCN(CC(=O)NCCC(c1ccccc1)c1ccccc1)C2` [Compound 85, N-(3,3-diphenyl-propyl)-2-(7-methoxy-1,3,4,5-tetrahydro-benzo[c]azepin-2-yl)-acetamide]: the pIC50 under setting [2] is 5.97.

For `O=C(CN1CCc2cccc(O)c2C1)N1c2ccccc2Oc2ccccc21` [Compound 144, 2-(8-Hydroxy-3,4-dihydro-1H-isoquinolin-2-yl)-1-phenoxazin-10-yl-ethanone], under setting [2], the pIC50 was 6.30.

Regarding `COc1cccc2c1CN(CC(=O)N1c3ccccc3OCC1c1ccc(F)cc1)CC2` (centres unmarked) [Compound 215, 1-[3-(4-Fluoro-phenyl)-2,3-dihydro-benzo[1,4]oxazin-4-yl]-2-(8-methoxy-3,4-dihydro-1H-isoquinolin-2-yl)-ethanone], the pIC50 under setting [2] was 5.95.

Regarding `COc1cccc2c1CN(CC(=O)N(C(C)C)C(C)C)CC2` [Compound 78, N,N-diisopropyl-2-(8-methoxy-3,4-dihydro-1H-isoquinolin-2-yl)-acetamide], under setting [2], the negative-log IC50 (pIC50) is 4.54.

For `COc1cc2c(cc1OC)CN(CC(=O)NCC(c1ccccc1)c1ccccc1)CC2` [Compound 126, 2-(6,7-Dimethoxy-3,4-dihydro-1H-isoquinolin-2-yl)-N-(2,2-diphenyl-ethyl)-acetamide], the pIC50 under setting [2] was 5.71.

On to `COc1cccc2c1CN(CC(=O)N1c3ccccc3Oc3ccccc31)CC2` [Compound 72, 2-(8-methoxy-3,4-dihydro-1H-isoquinolin-2-yl)-1-phenoxazin-10-yl-ethanone], for which the pIC50 under setting [2] is 6.31 and 5.89.

For the compound `Nc1cccc2c1CN(CC(=O)N(Cc1ccccc1)Cc1ccccc1)C2` [Compound 101, 2-(4-Amino-1,3-dihydro-isoindol-2-yl)-N,N-dibenzyl-acetamide], the pIC50 under setting [2] is 5.37.

For the compound `COc1cc2c(cc1OC)CN(CC(=O)N1c3ccccc3Sc3ccc(C(C)=O)cc31)CC2` [Compound 155, 1-(2-Acetyl-phenothiazin-10-yl)-2-(6,7-dimethoxy-3,4-dihydro-1H-isoquinolin-2-yl)-ethanone], under setting [2], the pIC50 is 5.20.

Consider `CCOc1cccc2c1CN(CC(=O)N(Cc1ccccc1)Cc1ccccc1)CC2` [Compound 91, N,N-Dibenzyl-2-(8-ethoxy-3,4-dihydro-1H-isoquinolin-2-yl)-acetamide], for which the pIC50 under setting [2] was 5.16.

As for `O=C(CN(Cc1ccccc1)Cc1ccccc1)N1CCc2ccccc2C1` [Example 35, 2-Dibenzylamino-1-(3,4-dihydro-1H-isoquinolin-2-yl)-ethanone], the pIC50 under setting [1] was 5.31.

With `O=C(CN1Cc2cccc(Cl)c2C1)N1c2ccccc2Oc2ccccc21` [Compound 219, 2-(4-Chloro-1,3-dihydro-isoindol-2-yl)-1-phenoxazin-10-yl-ethanone], the negative-log IC50 (pIC50) under setting [2] is 6.10.

On to `O=C(CN1CCc2c(O)cccc2C1)N1c2ccccc2Oc2ccccc21` [Compound 195, 2-(5-Hydroxy-3,4-dihydro-1H-isoquinolin-2-yl)-1-phenoxazin-10-yl-ethanone], for which the pIC50 under setting [2] was 5.73.

As for `COc1cccc2c1CN(C(=O)CON=C(c1ccccc1)c1ccccc1)CC2` [Example 43, 2-Benzhydrylideneaminooxy-1-(8-methoxy-3,4-dihydro-1H-isoquinoline-2-yl)-ethanone], the pIC50 under setting [1] was 5.78.

As for `COc1cccc2c1CN(CC(=O)N1c3ccccc3[S+]([O-])c3ccccc31)CC2` [Compound 143, 2-(8-Methoxy-3,4-dihydro-1H-isoquinolin-2-yl)-1-(5-oxo-5H-5lambda*4*-phenothiazin-10-yl)-ethanone], the pIC50 under setting [2] was 5.02.

Regarding `Oc1cccc2c1CN(Cc1n[nH]nc1-c1ccccc1)CC2` [Example 45, 2-(5-Phenyl-2H-[1,2,3]triazol-4-ylmethyl)-1,2,3,4-tetrahydro-isoquinolin-8-ol], the pIC50 under setting [1] is 5.14.

`O=C(CN1CCc2cccc(O)c2C1)N(c1ccccc1)c1ccc(O)cc1` [Compound 176, 2-(8-Hydroxy-3,4-dihydro-1H-isoquinolin-2-yl)-N-(4-hydroxy-phenyl)-N-phenyl-acetamide] had a pIC50 of 5.23.

Take `Nc1cccc2c1CN(CCCC(c1ccc(F)cc1)c1ccc(F)cc1)CC2` [Compound 110, 2-[4,4-Bis-(4-fluoro-phenyl)-butyl]-1,2,3,4-tetrahydro-isoquinolin-8-ylamine]: under setting [2], the negative-log IC50 (pIC50) was 6.32.

`COc1cccc2c1CN(CC(=O)NCCCn1c3ccccc3c3ccccc31)CC2` [Compound 128, N-(3-Carbazol-9-yl-propyl)-2-(8-methoxy-3,4-dihydro-1H-isoquinolin-2-yl)-acetamide]: the pIC50 under setting [2] was 5.45.

`COc1cccc2c1CN(C(C)C(=O)N1c3ccccc3Oc3ccccc31)C2` (centres unmarked) [Compound 217, 2-(4-Methoxy-1,3-dihydro-isoindol-2-yl)-1-phenoxazin-10-yl-propan-1-one]: the pIC50 under setting [2] is 5.71.

With `COc1cc2c(cc1OC)CN(CCNC(=O)N1c3ccccc3Sc3ccccc31)CC2` [Compound 161, Phenothiazine-10-carboxylic acid [2-(6,7-dimethoxy-3,4-dihydro-1H-isoquinolin-2-yl)-ethyl]-amide], the pIC50 under setting [2] was 5.95.

For the compound `COc1cccc2c1CN(CC(=O)N1c3ccccc3Sc3ccc(C(C)=O)cc31)CC2` [Compound 148, 1-(2-Acetyl-phenothiazin-10-yl)-2-(8-methoxy-3,4-dihydro-1H-isoquinolin-2-yl)-ethanone], under setting [2], the pIC50 was 5.29.

In the case of `COc1cccc2c1CN(CC(=O)NC(C)c1ccccc1)CC2` (centres unmarked) [Compound 105, 2-(8-Methoxy-3,4-dihydro-1H-isoquinolin-2-yl)-N-(1-phenyl-ethyl)-acetamide], under setting [2], the pIC50 is 4.80.

Consider `O=C(CN1CCc2cccc(O)c2C1)N(c1ccccc1)c1ccccc1` [Compound 149, 2-(8-Hydroxy-3,4-dihydro-1H-isoquinolin-2-yl)-N,N-diphenyl-acetamide], for which the pIC50 under setting [2] was 5.04.
